{"source": "paper PMC4744661", "about": "(Diabetes/Metabolism Research and Reviews, 2015)", "origin": "cited, not measured here", "tested_on": "gastric emptying", "settings": "healthy volunteers and patients with T2DM"}
{"substance": "exenatide [exenatide BID]", "values": [{"measurement": "effect on gastric emptying / acetaminophen exposure", "value": "substantially slowed gastric emptying"}]}
{"substance": "liraglutide (HAEGTFTSDVSSYLEGQAAKEFIAWLVRGRG; chains of the INN, looked up)", "values": [{"measurement": "effect on gastric emptying / acetaminophen exposure", "value": "equivalent effects on acetaminophen exposure"}]}
